Marks after values point to notes of the source that are not given here.
Columns and labels:
[1] = system: A549 human lung cancer xenografts; assay: Growth inhibition on A549 human lung cancer xenografts in nude mice; type: in vivo, BALB/c nude mice; details: for Tumor inhibition rate: by tumor weight; for Tumor weight: tumors excised after 21 days
Protocol: (§1) The dose volume was 0.4 ml per 20 g, that is, the dose was 96 mg/kg. Then, the solution was diluted to other desired concentrations with 0.9% sodium chloride solution.
(§2) Docetaxel injection, manufactured by Jiangsu Hengrui Pharmaceutical Co., Ltd., lot number: 15011215, specification: 0.5 ml: 20 mg. Formulation method: during use, 20 mg of docetaxel injection of the above specification was added to 1.5 ml of a solvent for the docetaxel injection to give a concentration of 10 mg/ml, and then fully diluted with saline to 1 mg/ml. The dose volume was 0.2 ml per 20 g, that is, the dose was 10 mg/kg.
(§3) BALB/c nude mice, provided by Changzhou Kavens Laboratory Animal Co., Ltd. (Experimental Animal Production License: SOCK (Su) 2011-0003), age: 35-40 days, weight: 18-24 g, female.
A549 human lung cancer xenografts in nude mice was established by inoculating human lung cancer A549 cell line subcutaneously to the axillary fossa of nude mice in an amount of 2*10^6 cells/animal.
(§4) Human lung cancer A549 cell line in logarithmic growth phase was prepared into a cell suspension of 1×10^8 cells/ml under aseptic conditions and subcutaneously inoculated to the right axillary fossa of nude mice in a volume of 0.1 ml. The size of the xenograft in the nude mice was measured with a vernier caliper. After the xenografts grew to 100-300 mm^3, the animals were randomly grouped. The anti-tumor effect of the test agents was dynamically observed by measuring the size of the xenografts. The size of the xenografts was measured once every 3 days. The dose volume was 0.4 ml/20 g. Twenty-one days later, the mice were sacrificed and the tumors were surgically excised and weighed. The tumor volume (TV) is calculated by a formula below: TV=½×a×b^2
The relative tumor volume (RTV) is calculated based on the measurements by a formula: RTV=Vt/V0, where V0 is the measured tumor volume upon being caged (i.e., d0) and Vt is the tumor volume at each measurement. The evaluation index of the anti-tumor activity is relative tumor growth rate T/C (%), which is calculated by a formula below: […]
in which TRTV is the RTV of the treatment group; and CRTV is the RTV of the negative control group.
The tumor inhibition rate is calculated by a formula below: […]
Tweight is the average tumor weight of the treatment group; and Cweight is the average tumor weight of the negative control group.

[2] = Effect on body weight of nude mice with A549 human lung cancer xenografts; type: in vivo, BALB/c nude mice; details: for Initial body weight: before dosing; for Final body weight: once every 3 days, end of study (21 days)
Protocol: as §1, §2, §3, §4

[3] = XBB-023 24 mg/kg, tail vein, once every 3 days, 7 doses, 21 d
[4] = XBB-023 24 mg/kg, tail vein, once every 3 days, 3 d
[5] = XBB-023 24 mg/kg, tail vein, once every 3 days, 6 d
[6] = XBB-023 24 mg/kg, tail vein, once every 3 days, 9 d
[7] = XBB-023 24 mg/kg, tail vein, once every 3 days, 12 d
[8] = XBB-023 24 mg/kg, tail vein, once every 3 days, 15 d
[9] = XBB-023 24 mg/kg, tail vein, once every 3 days, 18 d
[10] = XBB-023 48 mg/kg, tail vein, once every 3 days, 7 doses, 21 d
[11] = XBB-023 48 mg/kg, tail vein, once every 3 days, 3 d
[12] = XBB-023 48 mg/kg, tail vein, once every 3 days, 6 d
[13] = XBB-023 48 mg/kg, tail vein, once every 3 days, 9 d
[14] = XBB-023 48 mg/kg, tail vein, once every 3 days, 12 d
[15] = XBB-023 48 mg/kg, tail vein, once every 3 days, 15 d
[16] = XBB-023 48 mg/kg, tail vein, once every 3 days, 18 d
[17] = XBB-023 96 mg/kg, tail vein, once every 3 days, 7 doses, 21 d
[18] = XBB-023 96 mg/kg, tail vein, once every 3 days, 3 d
[19] = XBB-023 96 mg/kg, tail vein, once every 3 days, 6 d
[20] = XBB-023 96 mg/kg, tail vein, once every 3 days, 9 d
[21] = XBB-023 96 mg/kg, tail vein, once every 3 days, 12 d
[22] = XBB-023 96 mg/kg, tail vein, once every 3 days, 15 d
[23] = XBB-023 96 mg/kg, tail vein, once every 3 days, 18 d

Polyethylene Glycol Monomethyl Ether (Mn=1000) Docetaxel-2′-Diglycolate [XBB-023]
Tumor volume ([1]; XBB-023 24 mg/kg group, 0 d (baseline)): 101.08 ± 20.73 mm^3 | Tumor inhibition rate ([1]; XBB-023 24 mg/kg, once every 3 days, 7 doses, 24 mg/kg): 34.73% | Tumor weight ([1]; XBB-023 24 mg/kg, once every 3 days): 0.78 ± 0.22 g | RTV (relative tumor volume) [1, 3]: 6.39 ± 0.81 | Tumor volume [1, 3]: 660.00 ± 210.71* mm^3 | T/C (relative tumor growth rate) ([1]; XBB-023 24 mg/kg, tail vein, once every 3 days, 7 doses, 21 d, 24 mg/kg): 56.30% | RTV (relative tumor volume) [1, 4]: 2.27 ± 0.52 | T/C (relative tumor growth rate) [1, 4]: 78.90% | Tumor volume [1, 4]: 232.16 ± 79.30* mm^3 | RTV (relative tumor volume) [1, 5]: 2.38 ± 0.37 | T/C (relative tumor growth rate) [1, 5]: 66.13% | Tumor volume [1, 5]: 244.45 ± 80.88** mm^3 | RTV (relative tumor volume) [1, 6]: 2.85 ± 0.39 | T/C (relative tumor growth rate) [1, 6]: 61.19% | Tumor volume [1, 6]: 289.34 ± 82.35** mm^3 | RTV (relative tumor volume) [1, 7]: 3.68 ± 0.51 | T/C (relative tumor growth rate) [1, 7]: 57.80% | Tumor volume [1, 7]: 371.41 ± 95.01** mm^3 | RTV (relative tumor volume) [1, 8]: 4.91 ± 1.58 | T/C (relative tumor growth rate) [1, 8]: 58.72% | Tumor volume [1, 8]: 522.84 ± 249.70* mm^3 | RTV (relative tumor volume) [1, 9]: 5.68 ± 1.66 | T/C (relative tumor growth rate) [1, 9]: 58.60% | Tumor volume [1, 9]: 602.28 ± 288.50** mm^3 | Tumor volume ([1]; XBB-023 48 mg/kg group, 0 d (baseline)): 101.49 ± 18.47 mm^3 | Tumor inhibition rate ([1]; XBB-023 48 mg/kg, once every 3 days, 7 doses, 48 mg/kg): 68.55% | Tumor weight ([1]; XBB-023 48 mg/kg, once every 3 days): 0.38 ± 0.14 g | RTV (relative tumor volume) [1, 10]: 2.90 ± 0.37 | Tumor volume [1, 10]: 299.13 ± 86.76** mm^3 | T/C (relative tumor growth rate) ([1]; XBB-023 48 mg/kg, tail vein, once every 3 days, 7 doses, 21 d, 48 mg/kg): 25.56% | RTV (relative tumor volume) [1, 11]: 1.59 ± 0.35 | T/C (relative tumor growth rate) [1, 11]: 55.23% | Tumor volume [1, 11]: 159.57 ± 38.77** mm^3 | RTV (relative tumor volume) [1, 12]: 1.80 ± 0.18 | T/C (relative tumor growth rate) [1, 12]: 49.90% | Tumor volume [1, 12]: 180.89 ± 31.39** mm^3 | T/C (relative tumor growth rate) [1, 13]: 52.80% | Tumor volume [1, 13]: 245.14 ± 40.82** mm^3 | RTV (relative tumor volume) [1, 14]: 3.02 ± 0.53 | T/C (relative tumor growth rate) [1, 14]: 47.50% | Tumor volume [1, 14]: 302.66 ± 60.48 mm^3 | RTV (relative tumor volume) [1, 15]: 2.61 ± 0.47 | T/C (relative tumor growth rate) [1, 15]: 31.23% | Tumor volume [1, 15]: 264.78 ± 68.29** mm^3 | RTV (relative tumor volume) [1, 16]: 2.50 ± 0.37 | T/C (relative tumor growth rate) [1, 16]: 25.76% | Tumor volume [1, 16]: 257.22 ± 76.37** mm^3 | Tumor volume ([1]; XBB-023 96 mg/kg group, 0 d (baseline)): 102.83 ± 14.74 mm^3 | inhibition rate higher than that in the positive control group ([1]; XBB-023 96 mg/kg versus 10 mg/kg docetaxel): 16.29% | Tumor inhibition rate ([1]; XBB-023 96 mg/kg, once every 3 days, 7 doses, 96 mg/kg): 88.45% | Tumor weight ([1]; XBB-023 96 mg/kg, once every 3 days): 0.14 ± 0.03 g | RTV (relative tumor volume) [1, 17]: 1.46 ± 0.32 | Tumor volume [1, 17]: 146.15 ± 20.51** mm^3 | T/C (relative tumor growth rate) ([1]; XBB-023 96 mg/kg, tail vein, once every 3 days, 7 doses, 21 d, 96 mg/kg): 12.83% | RTV (relative tumor volume) [1, 18]: 1.54 ± 0.31 | T/C (relative tumor growth rate) [1, 18]: 53.47% | Tumor volume [1, 18]: 154.44 ± 15.73** mm^3 | RTV (relative tumor volume) [1, 19]: 1.26 ± 0.15 | T/C (relative tumor growth rate) [1, 19]: 35.11% | Tumor volume [1, 19]: 129.15 ± 19.29** mm^3 | RTV (relative tumor volume) [1, 20]: 1.54 ± 0.22 | T/C (relative tumor growth rate) [1, 20]: 33.18% | Tumor volume [1, 20]: 15628 ± 17.71** mm^3 | RTV (relative tumor volume) [1, 21]: 1.54 ± 0.33 | T/C (relative tumor growth rate) [1, 21]: 24.19% | Tumor volume [1, 21]: 156.91 ± 35.05** mm^3 | RTV (relative tumor volume) [1, 22]: 1.06 ± 0.28 | T/C (relative tumor growth rate) [1, 22]: 12.63% | Tumor volume [1, 22]: 107.31 ± 27.45** mm^3 | RTV (relative tumor volume) [1, 23]: 1.13 ± 0.21 | T/C (relative tumor growth rate) [1, 23]: 11.66% | Tumor volume [1, 23]: 114.16 ± 17.61** mm^3 | effect on the body weight of the experimental mice (in words) ([2]; 48 mg/kg XBB-023, P<0.05): significant effect | effect on the body weight of the experimental mice (in words) ([2]; 96 mg/kg XBB-023, P<0.01): Extremely significant effect | Initial body weight ([2]; XBB-023 24 mg/kg group): 22.17 ± 1.57 g | Final body weight ([2]; XBB-023 24 mg/kg): 23.17 ± 0.90 g | Initial body weight ([2]; XBB-023 48 mg/kg group): 21.33 ± 1.37 g | Final body weight ([2]; XBB-023 48 mg/kg): 20.00 ± 0.82 g | Initial body weight ([2]; XBB-023 96 mg/kg group): 22.00 ± 0.82 g | Final body weight ([2]; XBB-023 96 mg/kg): 16.00 ± 2.31 g

Reference: patent US10406239B2, “Water-soluble docetaxel anticancer drug compound and preparation method and use thereof” (NANJING YOUYI MEDICAL TECHNOLOGY CO., LTD, priority 2015, dated 2019)
